Experimental data reported in patent publication US9493446B2, “Orexin receptor antagonists which are [ortho bi-(hetero-)aryl]-[2-(meta bi-(hetero-)aryl)-pyrrolidin-1-yl]-methanone derivatives” (Actelion Pharmaceuticals Ltd, priority 2012, dated 2016).
pIC50: −log10 of the molar value. Read-outs that look alike come from different tables or passages of the source.

Legend:
orexin-1 = orexin-1 (Homo sapiens (Human), UniProt O43613); test: Intracellular calcium measurement (FLIPR), CHO cells expressing human orexin-1 receptor, 3 nM orexin-A; assay type: cell-based; details: CHO cells expressing human orexin-1 receptor, FLIPR, 3 nM orexin-A; geometric mean if determined several times; read-out: IC50 OX1
Chain of orexin-1 (O43613 whole entry): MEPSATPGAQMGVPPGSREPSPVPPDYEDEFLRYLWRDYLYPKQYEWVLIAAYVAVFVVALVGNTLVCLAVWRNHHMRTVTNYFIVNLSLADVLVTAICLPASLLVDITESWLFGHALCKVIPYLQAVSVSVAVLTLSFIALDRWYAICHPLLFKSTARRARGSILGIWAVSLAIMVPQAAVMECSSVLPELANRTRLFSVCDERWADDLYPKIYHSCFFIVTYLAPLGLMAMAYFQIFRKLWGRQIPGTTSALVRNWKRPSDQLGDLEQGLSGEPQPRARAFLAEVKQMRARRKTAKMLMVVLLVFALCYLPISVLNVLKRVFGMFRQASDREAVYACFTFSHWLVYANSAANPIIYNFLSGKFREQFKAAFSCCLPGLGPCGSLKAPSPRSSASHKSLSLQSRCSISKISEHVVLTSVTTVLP
Summary of the method: (§1)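 CHO transfectants were dye-loaded (fluo-4 AM, probenecid) and exposed to antagonist for 120 min ahead of agonist.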

human orexin-2 receptor = human orexin-2 receptor (Homo sapiens (Human), UniProt O43614); test: Intracellular calcium measurement (FLIPR), CHO cells expressing human orexin-2 receptor, 3 nM orexin-A; assay type: cell-based; details: read-out: IC50 OX2
Chain of human orexin-2 receptor (O43614 whole entry): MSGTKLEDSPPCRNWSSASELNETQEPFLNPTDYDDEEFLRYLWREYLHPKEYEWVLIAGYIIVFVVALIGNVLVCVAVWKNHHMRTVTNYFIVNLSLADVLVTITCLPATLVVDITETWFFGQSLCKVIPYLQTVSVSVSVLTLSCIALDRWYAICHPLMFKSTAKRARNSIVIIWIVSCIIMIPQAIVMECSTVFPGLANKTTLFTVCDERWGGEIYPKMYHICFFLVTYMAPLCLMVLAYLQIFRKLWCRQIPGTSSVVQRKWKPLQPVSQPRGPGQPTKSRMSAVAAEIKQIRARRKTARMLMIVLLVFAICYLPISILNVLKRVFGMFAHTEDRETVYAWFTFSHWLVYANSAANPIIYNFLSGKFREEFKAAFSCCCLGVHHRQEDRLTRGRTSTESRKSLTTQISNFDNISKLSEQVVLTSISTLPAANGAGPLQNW
Summary of the method: as §1

[1] = CHO cells expressing human orexin-2 receptor, FLIPR, 3 nM orexin-A, geometric mean if determined several times

pIC50 (orexin-1) | pIC50 (human orexin-2 receptor; [1]) | SMILES | pIC50 (human orexin-2 receptor)
6.62 | 6.55 | O=C(c1cc(C(F)(F)F)ccc1-n1nccn1)N1CCC[C@H]1c1nc(-c2ccccc2OC(F)(F)F)no1 [compound 148, (2-[1,2,3]Triazol-2-yl-5-trifluoromethyl-phenyl)-{(S)-2-[3-(2-trifluoromethoxy-phenyl)-[1,2,4]oxadiazol-5-yl]-pyrrolidin-1-yl}-methanone] | 
6.79 | 8.70 | Cc1ccc(C)c(-c2nc([C@@H]3CCCN3C(=O)c3cc(C)c(C)cc3-n3nccn3)no2)c1 [compound 402, {(S)-2-[5-(2,5-Dimethyl-phenyl)-[1,2,4]oxadiazol-3-yl]-pyrrolidin-1-yl}-(4,5-dimethyl-2-[1,2,3]triazol-2-yl-phenyl)-methanone] | 
7.08 | 7.92 | COc1ccc(-n2nccn2)c(C(=O)N2CCC[C@H]2c2nc(-c3cccc(F)c3OC)no2)c1 [compound 199, {(S)-2-[3-(3-Fluoro-2-methoxy-phenyl)-[1,2,4]oxadiazol-5-yl]-pyrrolidin-1-yl}-(5-methoxy-2-[1,2,3]triazol-2-yl-phenyl)-methanone] | 
7.27 | 7.72 | COc1cc(Cl)cc(-c2nc([C@@H]3CCCN3C(=O)c3cc(C)ccc3-n3nccn3)no2)n1 [compound 316, {(S)-2-[5-(4-Chloro-6-methoxy-pyridin-2-yl)-[1,2,4]oxadiazol-3-yl]-pyrrolidin-1-yl}-(5-methyl-2-[1,2,3]triazol-2-yl-phenyl)-methanone] | 
6.62 | 7.39 | CCOc1cnccc1-c1noc([C@@H]2CCCN2C(=O)c2cc(C)ccc2-n2nccn2)n1 [compound 55, {(S)-2-[3-(3-Ethoxy-pyridin-4-yl)-[1,2,4]oxadiazol-5-yl]-pyrrolidin-1-yl}-(5-methyl-2-[1,2,3]triazol-2-yl-phenyl)-methanone] | 
6.45 | 6.92 | CCOc1ncccc1-c1noc([C@@H]2CCCN2C(=O)c2ccc(C(F)(F)F)cc2-n2nccn2)n1 [compound 222, {(S)-2-[3-(2-Ethoxy-pyridin-3-yl)-[1,2,4]oxadiazol-5-yl]-pyrrolidin-1-yl}-(2-[1,2,3]triazol-2-yl-4-trifluoromethyl-phenyl)-methanone] | 
7.80 | 8.15 | CCOc1c(F)cccc1-c1noc([C@@H]2CCCN2C(=O)c2cc(C)ccc2-n2nccn2)n1 [compound 56, {(S)-2-[3-(2-Ethoxy-3-fluoro-phenyl)-[1,2,4]oxadiazol-5-yl]-pyrrolidin-1-yl}-(5-methyl-2-[1,2,3]triazol-2-yl-phenyl)-methanone] | 
6.20 | 7.05 | Cc1cccc(C(=O)N2CCC[C@H]2c2nc(-c3cccc(F)c3C)no2)c1-n1nccn1 [compound 251, {(S)-2-[3-(3-Fluoro-2-methyl-phenyl)-[1,2,4]oxadiazol-5-yl]-pyrrolidin-1-yl}-(3-methyl-2-[1,2,3]triazol-2-yl-phenyl)-methanone] | 
7.11 | 8.30 | Cc1ccc(-n2nccn2)c(C(=O)N2CCC[C@H]2c2nc(-c3cccc(F)c3C)no2)c1 [compound 26, {(S)-2-[3-(3-Fluoro-2-methyl-phenyl)-[1,2,4]oxadiazol-5-yl]-pyrrolidin-1-yl}-(5-methyl-2-[1,2,3]triazol-2-yl-phenyl)-methanone] | 
6.89 | 6.53 | Cc1ccc(-n2nccn2)c(C(=O)N2CCC[C@H]2c2nc(-c3ccccc3)co2)c1 [Example 459, (5-Methyl-2-[1,2,3]triazol-2-yl-phenyl)-[(S)-2-(4-phenyl-oxazol-2-yl)-pyrrolidin-1-yl]-methanone] | 
6.50 | 7.01 | CCc1ncccc1-c1noc([C@@H]2CCCN2C(=O)c2cc(C)ccc2-n2nccn2)n1 [compound 53, {(S)-2-[3-(2-Ethyl-pyridin-3-yl)-[1,2,4]oxadiazol-5-yl]-pyrrolidin-1-yl}-(5-methyl-2-[1,2,3]triazol-2-yl-phenyl)-methanone] | 
8.40 | 8.00 | Cc1ccc(-n2nccn2)c(C(=O)N2CCC[C@H]2c2cc(-c3ccccc3OC(F)(F)F)no2)c1 [compound 425, (5-Methyl-2-[1,2,3]triazol-2-yl-phenyl)-{(S)-2-[3-(2-trifluoromethoxy-phenyl)-isoxazol-5-yl]-pyrrolidin-1-yl}-methanone] | 
5.92 | 7.33 | COc1cccc(-c2noc([C@@H]3CCCN3C(=O)c3cc(C)ccc3-n3nccn3)n2)c1OC [compound 59, {(S)-2-[3-(2,3-Dimethoxy-phenyl)-[1,2,4]oxadiazol-5-yl]-pyrrolidin-1-yl}-(5-methyl-2-[1,2,3]triazol-2-yl-phenyl)-methanone] | 
7.55 | 7.64 | CC(=O)n1cc(-c2noc([C@@H]3CCCN3C(=O)c3cc(C)ccc3-n3nccn3)n2)c2ccccc21 [Example 85, 1-(3-{5-[(S)-1-(5-Methyl-2-[1,2,3]triazol-2-yl-benzoyl)-pyrrolidin-2-yl]-[1,2,4]oxadiazol-3-yl}-indol-1-yl)-ethanone] | 
6.93 | 8.15 | COc1ccc(C)c(-c2nc([C@@H]3CCCN3C(=O)c3cc(OC)c(C)cc3-n3nccn3)no2)c1 [compound 386, {(S)-2-[5-(5-Methoxy-2-methyl-phenyl)-[1,2,4]oxadiazol-3-yl]-pyrrolidin-1-yl}-(5-methoxy-4-methyl-2-[1,2,3]triazol-2-yl-phenyl)-methanone] | 
7.66 | 8.70 | COc1ccc(C)cc1-c1nc([C@@H]2CCCN2C(=O)c2cc(C)c(C)cc2-n2nccn2)no1 [compound 384, (4,5-Dimethyl-2-[1,2,3]triazol-2-yl-phenyl)-{(S)-2-[5-(2-methoxy-5-methyl-phenyl)-[1,2,4]oxadiazol-3-yl]-pyrrolidin-1-yl}-methanone] | 
7.16 | 6.72 | Cc1ccc(C(=O)N2CCC[C@H]2c2nc(-c3ccccc3OC(F)(F)F)no2)c(-n2nccn2)c1C [compound 271, (3,4-Dimethyl-2-[1,2,3]triazol-2-yl-phenyl)-{(S)-2-[3-(2-trifluoromethoxy-phenyl)-[1,2,4]oxadiazol-5-yl]-pyrrolidin-1-yl}-methanone] | 
6.12 | 6.63 | COc1c(F)cccc1-c1nnc([C@@H]2CCCN2C(=O)c2cc(C)ccc2-n2nccn2)o1 [Example 448, {(S)-2-[5-(3-Fluoro-2-methoxy-phenyl)-[1,3,4]oxadiazol-2-yl]-pyrrolidin-1-yl}-(5-methyl-2-[1,2,3]triazol-2-yl-phenyl)-methanone] | 

SMILES | pIC50 (orexin-1) | pIC50 (human orexin-2 receptor; [1]) | pIC50 (human orexin-2 receptor)
Cc1ccc(-c2ccccn2)c(C(=O)N2CCC[C@H]2c2nc(-c3cccc(Cl)c3C)no2)c1 [compound 90] | 6.86 | 7.60 | 
Cc1c(Cl)cccc1-c1noc([C@@H]2CCCN2C(=O)c2cccnc2-c2ccccn2)n1 [compound 107] | 5.98 | 7.10 | 
CCCOc1ccccc1-c1noc([C@@H]2CCCN2C(=O)c2cc(C)ccc2-n2nccn2)n1 [compound 45] | 6.95 | 6.90 | 
COc1cc(C(=O)N2CCC[C@H]2c2noc(-c3cc(C)ccc3OC)n2)c(-n2nccn2)cc1Cl [compound 350] | 7.44 | 8.70 | 
COc1c(F)cccc1-c1nc([C@@H]2CCCN2C(=O)c2ccc(Cl)cc2-n2nccn2)no1 [compound 378] | 7.52 |  | 8.70
Cc1cccc(-c2ocnc2C(=O)N2CCC[C@H]2c2nc(-c3cccc(Cl)c3C)no2)c1 [compound 92] | 6.92 | 7.28 | 
